According to US4206127A, “5,6-Dihydro analogues of prostaglandin I2” (Miles Laboratories, Inc., priority 1978, dated 1980):

Assays:
rat gastric secretion = test: Effects of Prostaglandin Analogues on Gastric Secretion in the Rat (Test B); type: in vivo; conditions: pylorus-ligated rats, subcutaneous 1.5 mg/kg twice (total 3.0 mg/kg), 4 hours
Protocol: B. Evaluation of the Effects of Prostaglandin Analogues on Gastric Secretion in the Rat
A procedure based on that described by Lipmann (J. Pharm. Pharmacol., 21: 335 [1968]) was used to assess the influence of test compounds on gastric secretion. Rats of one sex weighing 150 to 200 g were randomly divided into groups of six animals each and fasted for 48 hours previously to the experiments, water being available ad libitum. The animals were anesthetized with ether, the abdomen was opened through a midline incision and the pylorus was ligated. Test compounds were diluted from stock solution so as to administer a dose of 1.5 mg/kg in a volume equivalent to 1 ml/kg. Subcutaneous injections were applied immediately after surgery and again 2 hours later, so that a total dose of 3.0 mg/kg was administered. Dilutions were made with phosphate buffer (pH 7.38), as recommended by Lee et al. (Prostaglandins 3: 29 [1973]), in order to insure adequate stability of drugs at the subcutaneous depot. […]
Four hours after pyloric ligation the animals were killed with ether, the cardias ligated and stomachs removed. The volume of gastric secretion was measured and the contents centrifuged at 5000 rpm for 10 minutes. […]
Volume and total acid values of the treated group were compared with those of the controls by the "Squared" test. Antisecretory activity was scored according to the following scale: […]

platelet aggregation = conditions: cited from earlier work
blood vessels = conditions: cited from earlier work

Compound | Activity Value, Test B - inhibition of rat gastric secretion (score of % decrease in acidity) (rat gastric secretion) | inhibition of platelet aggregation (platelet aggregation) | destruction of platelet clumps (platelet aggregation; in vitro, clumps already induced to form) | dilation of blood vessels (blood vessels)
9-Deoxy-9a-Homo-6, 9α-epoxy-15S-hydroxyprost-13E-en-1-oic acid [TR-4921] | 2 (26-50, significant) |  |  | 
Ethyl 5, 9β-Epoxy-11α,15-dihydroxy-16,20-methanoprost-13E-en-1-oate [TR-4973] | 0 (<26) |  |  | 
CCCCC[C@H](O)/C=C/[C@@H]1[C@H]2C/C(=C/CCCC(=O)O)O[C@H]2C[C@H]1O [PGI2, (5Z)-9-deoxy-6, 9α-epoxy-Δ^5-prostaglandin F1α] |  | the most potent inhibitor of platelet clumping of all the prostaglandins discovered to date | destroys platelet clumps after they have been induced to form | dilates blood vessels dramatically
